The target of one assay is T1, rhJAK3 (Homo sapiens, UniProt P52333).
T1 construct: recombinant purified GST-tagged catalytic domain for each enzyme; purchased Invitrogen PV3855
T1 sequence (P52333 822-1111 limits assumed): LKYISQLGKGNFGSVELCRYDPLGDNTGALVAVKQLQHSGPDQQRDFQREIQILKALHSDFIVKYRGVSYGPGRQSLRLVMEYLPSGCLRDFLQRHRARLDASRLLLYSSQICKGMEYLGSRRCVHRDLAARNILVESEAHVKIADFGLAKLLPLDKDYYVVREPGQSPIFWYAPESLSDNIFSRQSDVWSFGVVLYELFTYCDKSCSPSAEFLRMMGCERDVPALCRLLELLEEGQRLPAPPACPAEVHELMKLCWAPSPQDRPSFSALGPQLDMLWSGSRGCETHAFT
The assay is described as follows: JAK Biochemical HTRF Assay (JAK3). Particulars: recombinant purified GST-tagged catalytic domain, HTRF format, [ATP] 1.7 μM; read-out: JAK3 IC50. As for the experimental part: JAK Biochemical HTRF Assay Protocol
The ability of compounds to inhibit the activity of JAK1, JAK2, JAK3, and TYK2 was measured using a recombinant purified GST-tagged catalytic domain for each enzyme (Invitrogen JAK1 #PV4774, JAK2 #PV4210, JAK3 #PV3855, TYK2 #PV4790) in an HTRF format biochemical assay. The reactions employed a common peptide substrate, LCB-EQEDEPEGDYFEWLW-NH2. The basic assay protocol is as follows: First, […] of diluted compounds in DMSO were dispensed into the wells of a dry 384-well Black plate (Greiner #781076) using a Labcyte Echo 555 acoustic dispenser. Subsequent reagent additions employed a Thermo Multidrop Combi nL. Next, 10 μL of 2× enzyme and 2× substrate in 1× assay buffer (Invitrogen kinase buffer #PV3189, 2 mM DTT, 0.05% BSA) were added to the wells and preincubated for 30 min at room temperature to allow compound binding to equilibrate. After equilibration, 10 μl, of 2×ATP in 1× assay buffer was added to initiate the kinase reaction and the plates were incubated at room temperature for 120 min. At the end of the incubation, 20 μL of 2× stop buffer containing streptavidin-Dylight (Thermo #21845) and Eu-tagged pY20 antibody (Perkin Elmer #AD0067) was added to quench the reaction. Plates were further incubated 60 min at room temperature with shaking and then read on a Perkin Elmer Envision (λex=337 nm, λem=665 and 615 nm, TRF delay time=20 μs). HTRF signal=10,000*665 nm reading/615 nm reading. After normalization to untreated controls, the percent inhibition of the HTRF signal at each compound concentration was calculated. The plot of percent inhibition vs. the log of compound concentration was fit with a 4-parameter dose response equation to calculate IC50 values.
Take `C[C@@H](Nc1cncc(-c2c[nH]c3ncc(-c4cncc(C#N)c4)cc23)n1)C(=O)NCC(F)(F)F` [Example 15-19, N^2-{6-[5-(5-cyanopyridin-3-yl)-1H-pyrrolo[2,3-b]pyridin-3-yl]pyrazin-2-yl}-N-(2,2,2-trifluoroethyl)-D-alaninamide]: the IC50 is at most 1 nM.
For the compound `C[C@@H](Nc1cncc(-c2c[nH]c3ncc(C4=CCOCC4)cc23)n1)C(=O)NCC(F)(F)F` [Example 15-15, N^2-{6-[5-(3,6-dihydro-2H-pyran-4-yl)-1H-pyrrolo[2,3-b]pyridin-3-yl]pyrazin-2-yl}-N-(2,2,2-trifluoroethyl)-D-alaninamide], the IC50 is at most 1 nM.
`C[C@@H](Nc1cncc(-c2c[nH]c3ncc(-c4ccc(N5CCCC5)cc4)cc23)n1)C(=O)NCC(F)(F)F` [Example 15-17, N^2-{6-[5-(4-pyrrolidin-1-ylphenyl)-1H-pyrrolo[2,3-b]pyridin-3-yl]pyrazin-2-yl}-N-(2,2,2-trifluoroethyl)-D-alaninamide]: the IC50 is at most 1 nM.
Regarding `CC(C)(Nc1cncc(-c2c[nH]c3ncc(F)cc23)n1)C(=O)NCC(F)(F)F` [Example 16-5, N^2-[6-(5-fluoro-1H-pyrrolo[2,3-b]pyridin-3-yl)pyrazin-2-yl]-2-methyl-N-(2,2,2-trifluoroethyl)alaninamide], the half-maximal inhibitory concentration (IC50) was at most 1 nM.
Same read-out and setting: under `C[C@@H](Nc1cncc(-c2c[nH]c3ncc(-c4ccnn4C)cc23)n1)C(=O)NCC(F)(F)F` [Example 15-5, N^2-{6-[5-(1-methyl-1H-pyrazol-5-yl)-1H-pyrrolo[2,3-b]pyridin-3-yl]pyrazin-2-yl}-N-(2,2,2-trifluoroethyl)-D-alaninamide] stands 1 to 10 nM; under `C[C@@H](Nc1cncc(-c2c[nH]c3ncc(-c4ccccc4OC(F)(F)F)cc23)n1)C(=O)NCC(F)(F)F` [Example 15-14, N-(2,2,2-trifluoroethyl)-N^2-(6-{5-[2-(trifluoromethoxy)phenyl]-1H-pyrrolo[2,3-b]pyridin-3-yl}pyrazin-2-yl)-D-alaninamide], 10 to 100 nM.
Regarding `C[C@@H](Nc1cncc(-c2c[nH]c3ncc(-c4cccc(N5CCCC5)c4)cc23)n1)C(=O)NCC(F)(F)F` [Example 15-1, N^2-{6-[5-(3-pyrrolidin-1-ylphenyl)-1H-pyrrolo[2,3-b]pyridin-3-yl]pyrazin-2-yl}-N-(2,2,2-trifluoroethyl)-D-alaninamide], the IC50 was at most 1 nM.
Still for that read-out and setting: under `C[C@@H](Nc1cncc(-c2c[nH]c3ncc(/C=C/CN(C)C)cc23)n1)C(=O)NCC(F)(F)F` [Example 15-4, N^2-(6-{5-[(1E)-3-(dimethylamino)prop-1-en-1-yl]-1H-pyrrolo[2,3-b]pyridin-3-yl}pyrazin-2-yl)-N-(2,2,2-trifluoro-ethyl)-D-alaninamide] stands 1 to 10 nM; under `COCC#Cc1cnc2[nH]cc(-c3cncc(N[C@H](C)C(=O)NCC(F)(F)F)n3)c2c1` [Example 15-7, N^2-{6-[5-(3-methoxyprop-1-yn-1-yl)-1H-pyrrolo[2,3-b]pyridin-3-yl]pyrazin-2-yl}-N-(2,2,2-trifluoroethyl)-D-alaninamide], at most 1 nM.

Staying with this assay, now noted: recombinant purified GST-tagged catalytic domain, HTRF format, [ATP] 1.7 μM; read-out: rhJAK3 IC50.
For `C[C@H](Nc1cncc(-c2c[nH]c3ncc(Cl)cc23)n1)C(=O)N1CCC(F)(F)C1` [Example 2-3, 6-(5-chloro-1H-pyrrolo[2,3-b]-pyridin-3-yl)-N-[(1S)-2-(3,3-difluoropyrrolidin-1-yl)-1-methyl-2-oxoethyl]pyrazin-2-amine], the IC50 fell in the range of 10 to 100 nM.
For `Cc1cnc2[nH]cc(-c3cncc(N[C@H](C)C(=O)NCC(F)(F)F)n3)c2c1` [Example 15, N2-[6-(5-methyl-1H-pyrrolo[2,3-b]pyridin-3-yl)pyrazin-2-yl]-N-(2,2,2-trifluoroethyl)-D-alaninamide], the IC50 lay in the range of 1 to 10 nM.
For the compound `O=C(NCC(F)(F)F)[C@@H]1CC(F)(F)CN1c1cncc(-c2c[nH]c3ncc(Cl)cc23)n1` [Example 1-8, 1-[6-(5-chloro-1H-pyrrolo[2,3-b]pyridin-3-yl)pyrazin-2-yl]-4,4-difluoro-N-(2,2,2-trifluoroethyl)-L-prolinamide], the IC50 is 1 to 10 nM.
On the same count and under the same terms, the figure for `O=C(NCC(F)(F)F)C1CN(c2cncc(-c3c[nH]c4ncc(Cl)cc34)n2)C1` [Example 1-15, 1-[6-(5-chloro-1H-pyrrolo[2,3-b]pyridin-3-yl)pyrazin-2-yl]-N-(2,2,2-trifluoroethyl)azetidine-3-carboxamide] is 10 to 100 nM.
With `O=C(Cc1cncc(-c2c[nH]c3ncc(Cl)cc23)n1)NCC(F)(F)F` [Example 8, 2-[6-(5-chloro-1H-pyrrolo[2,3-b]pyridin-3-yl)pyrazin-2-yl]-N-(2,2,2-trifluoroethyl)acetamide], the IC50 was 10 to 100 nM.
Still for that read-out and setting: the figure for “(2R)-1-[6-(5-chloro-1H-pyrrolo[2,3-b]- pyridin-3-yl)pyrazin-2-yl]-N-(2,2,2- trifluoroethyl)piperazine-2-carboxamide [Example 4-1]” is 10 to 100 nM; for `CC(=O)N1CCN(c2cncc(-c3c[nH]c4ncc(Cl)cc34)n2)[C@@H](C(=O)NCC(F)(F)F)C1` [Example 4-2, (2R)-4-acetyl-1-[6-(5-chloro-1H-pyrrolo-[2,3-b]pyridin-3-yl)pyrazin-2-yl]-N-(2,2,2-trifluoroethyl)piperazine-2-carboxamide] it is 1 to 10 nM; for `O=C(NCC(F)(F)F)[C@@H]1[C@@H](O)CN1c1cncc(-c2c[nH]c3ncc(Cl)cc23)n1` [Example 3, (2S,3S)-1-[6-(5-Chloro-1H-pyrrolo[2,3-b]pyridin-3-yl)pyrazin-2-yl]-3-hydroxy-N-(2,2,2-trifluoroethyl)azetidine-2-carboxamide] it is 1 to 10 nM.
On the same count and under the same terms, the figure for `C[C@H](Nc1cncc(-c2c[nH]c3ncc(Cl)cc23)n1)C(=O)NCC(F)(F)F` [Example 2, N^2-[6-(5-Chloro-1H-pyrrolo[2,3-b]pyridin-3-yl)pyrazin-2-yl]-N-(2,2,2-trifluoroethyl)-L-alaninamide] is at most 1 nM; for `NC(=O)C1(Oc2cncc(-c3c[nH]c4ncc(Cl)cc34)n2)CC1` [Example 6-1, 1-{[6-(5-chloro-1H-pyrrolo[2,3-b]pyridin-3-yl)pyrazin-2-yl]oxy}cyclopropane-carboxamide] it is 1 to 10 nM.
In the case of `C[C@H](Oc1cncc(-c2c[nH]c3ncc(Cl)cc23)n1)C(=O)NCC(F)(F)F` [Example 6-4, 2(S) 2-{[6-(5-chloro-1H-pyrrolo[2,3-b]pyridin-3-yl)pyrazin-2-yl]oxy}-N-(2,2,2-trifluoroethyl)propanamide], the IC50 is 1 to 10 nM.
Regarding `C[C@@H](Nc1cncc(-c2c[nH]c3ncc(Cl)cc23)n1)C(=O)NCCc1cccs1` [Example 2-15, N^2-[6-(5-chloro-1H-pyrrolo[2,3-b]-pyridin-3-yl)pyrazin-2-yl]-N-(2-thiophen-2-ylethyl)-D-alaninamide], the IC50 fell in the range of 100 to 1000 nM.
On the same count and under the same terms, under `C/C(=C\c1cncc(-c2c[nH]c3ncc(Cl)cc23)n1)C(=O)NCC(F)(F)F` [Example 9, (2E)-3-[6-(5-chloro-1H-pyrrolo[2,3-b]pyridin-3-yl)pyrazin-2-yl]-2-methyl-N-(2,2,2-trifluoro-ethyl)prop-2-enamide] stands 10 to 100 nM.
The same measure, in the same setting: under `CC1(C(=O)NCC(F)(F)F)CCN1c1cncc(-c2c[nH]c3ncc(Cl)cc23)n1` (stereo not drawn) [Example 1-9, 1-[6-(5-chloro-1H-pyrrolo[2,3-b]pyridin-3-yl)pyrazin-2-yl]-2-methyl-N-(2,2,2-trifluoroethyl)azetidine-2-carboxamide] stands at most 1 nM.
For the compound `CC(C)(C)OC(=O)N1CCN(c2cncc(-c3c[nH]c4ncc(Cl)cc34)n2)[C@@H](C(=O)NCC(F)(F)F)C1` [Example 1-13, tert-butyl (3R)-4-[6-(5-chloro-1H-pyrrolo[2,3-b]pyridin-3-yl)pyrazin-2-yl]-3-[(2,2,2-trifluoroethyl)carbamoyl]-piperazine-1-carboxylate], the IC50 is 1 to 10 nM.
As for `CC(Cc1cccnc1)NC(=O)[C@@H](C)Nc1cncc(-c2c[nH]c3ncc(Cl)cc23)n1` (stereo partly drawn) [Example 2-9, N^2-[6-(5-chloro-1H-pyrrolo[2,3-b]-pyridin-3-yl)pyrazin-2-yl]-N-(l - methyl-2-pyridin-3-ylethyl)-D-alaninamide], the IC50 is 100 to 1000 nM.
On the same count and under the same terms, the figure for `CC(C)(Nc1cncc(-c2c[nH]c3ncc(Cl)cc23)n1)C(=O)NCC(F)(F)F` [Example 1-14, N^2-[6-(5-chloro-1H-pyrrolo[2,3-b]pyridin-3-yl)pyrazin-2-yl]-2-methyl-N-(2,2,2-trifluoroethyl)alaninamide] is at most 1 nM; for `O=C(NCC(F)(F)F)c1ccc(-c2cncc(-c3c[nH]c4ncc(Cl)cc34)n2)cc1` [Example 10, 4-[6-(5-Chloro-1H-pyrrolo[2,3-b]pyridin-3-yl)pyrazin-2-yl]-N-(2,2,2-trifluoroethyl)benzamide] it is 100 to 1000 nM.

Usually IC50 stands for the concentration that gives 50% inhibition.

For the origin of these results see patent US20130040933A1, “AZAINDOLES AS JANUS KINASE INHIBITORS” (priority 2010, published 2013).
